The text below walks through data of PMC12606464, “Investigating NFE2L1 activators for targeted protein aggregate clearance: a follow-up study” (RSC Medicinal Chemistry, 2025).

Like-named read-outs stand apart in the source and are kept apart here.

The subject of one assay is reactive oxygen species. Nature of the assay: DCFH-DA oxidative stress detection. It is filed as cell-based. Conditions: DCFH-DA assay, Figure S8. As for the experimental part: 2.10 Oxidative stress detection
Cells were cultured in 96-well plates and washed with prewarmed HBSS buffer. A solution of 2',7'-dichlorofluorescein-diacetate (DCFH-DA) (100 μM) was added to the cells, followed by 30 minutes of incubation. […]
dissolved in HBSS buffer for an additional 2 hours. Control cells received vehicle (DMSO), or […]

Another assay has as its system NFE2L1 pathway. The assay can be described thus: 3×PSMA4-ARE-LUC dual luciferase reporter assay in HEK293 cells. It is filed as cell-based, human. Conditions: for EC50 / fold induction at 5 µM: Homo sapiens; for EC50: HEK293; for fold induction at 5 µM: 16 h, HEK293, luminescence relative to DMSO-treated cells, read-out: NFE2L1 activation [5 μM]. Summed up: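 HEK293 cells carrying the 3×PSMA4-ARE luciferase reporter (with pRL-TK) were treated with compounds for 16 h, then luciferase activity was measured. Values are fold change in luminescence over DMSO-treated cells; EC50 from four-parameter logistic or bell-shaped fits with 1/Y^2 weighting.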
In general terms: In a reporter assay the amount or activity of a reporter protein is the signal.

Where [1] appears, read: PSMA4-ARE-luc2P reporter, four-parameter logistic or bell-shaped model, order of models not stated, read-out: EC50 (first value).
Setting [2] is: [Agonist] vs. Response, variable slope (four parameters), weighting 1/Y^2, Fig. S1.
The mark [3] stands for this setting: Bell-shaped fit, X is concentration, weighting 1/Y^2, Fig. S1.
The mark [4] stands for this setting: Bell-shaped fit, X is concentration, weighting 1/Y^2, Fig. S1, read-out: EC50_1 (best-fit).
[5] abbreviates: PSMA4-ARE-luc2P reporter, four-parameter logistic or bell-shaped model, order of models not stated, read-out: EC50.

Regarding `COc1ccc(/C=C2\CC(N)C/C(=C\c3ccc(OC)c(OC)c3)C2=O)cc1OC` (stereo not drawn) [RUN-81], the “Geometric mean, Treatment (Control = 1)” value in the assay on reactive oxygen species (5 μM) was determined as 0.96. In addition, in the assay on reactive oxygen species (25 μM), the “Geometric mean, Treatment (Control = 1)” value came out at 0.99. Moreover, the EC50 with NFE2L1 pathway (setting [1]) amounted to 10.4 µM. Further, the fold induction at 5 µM in the assay on NFE2L1 pathway was found to be 2.1. Further, in the assay on NFE2L1 pathway (setting [2]), the “Bottom (best-fit)” value is listed as 0.95, the “Hillslope (best-fit)” value is on record as 2.70, the “Span (best-fit)” value turned out to be 18.71 and the “Top (best-fit)” value is 19.66. The “logEC50 (best-fit)” value with NFE2L1 pathway (setting [2]) is 1.02.
For `COc1ccc(/C=C2\CC(NC(=O)c3ccccn3)C/C(=C\c3ccc(OC)c(OC)c3)C2=O)cc1OC` (stereo not drawn) [RUN-94], the “Geometric mean, Treatment (Control = 1)” value in the assay with reactive oxygen species (5 μM) stood at 0.97. The “Geometric mean, Treatment (Control = 1)” value with reactive oxygen species (25 μM) was 1.00. Further, in the assay with NFE2L1 pathway (setting [3]), the “Dip (best-fit)” value is reported as 8.602, the “Plateau1 (best-fit)” value is -2.174, the “Plateau2 (best-fit)” value was 11.95 and the “nH1 (best-fit)” value is “Unstable”. For the same compound, in the assay on NFE2L1 pathway (setting [3]), the “nH2 (best-fit)” value was found to be 18.05. In addition, the EC50 with NFE2L1 pathway (setting [4]) was 3.8 µM. The EC50 in the assay on NFE2L1 pathway (setting [5]) came out at 3.8 µM. Moreover, the EC50 in the assay on NFE2L1 pathway (setting [1]) was determined as 3.8 µM. For the same compound, the EC50 in the assay on NFE2L1 pathway ([Agonist] vs. Response, variable slope (four parameters), weighting 1/Y^2, Fig. S1, read-out: EC50 (best-fit)) was 3.79 µM. Further, in the assay with NFE2L1 pathway, the fold induction at 5 µM was determined as 19.4. Moreover, in the assay on NFE2L1 pathway (setting [2]), the “Bottom (best-fit)” value was determined as 1.13, the “Hillslope (best-fit)” value was found to be 55.77, the “Span (best-fit)” value came out at 9.24 and the “Top (best-fit)” value is 10.37. Further, the “logEC50 (best-fit)” value in the assay with NFE2L1 pathway (setting [2]) stood at 0.58.
With `COc1ccc(/C=C2\CC(NC(=O)C3CCCC3)C/C(=C\c3ccc(OC)c(OC)c3)C2=O)cc1OC` (stereo not drawn) [RUN-89], the “Geometric mean, Treatment (Control = 1)” value in the assay with reactive oxygen species (5 μM) worked out at 1.09. Besides, the “Geometric mean, Treatment (Control = 1)” value in the assay on reactive oxygen species (25 μM) is recorded as 1.13. Also, in the assay on NFE2L1 pathway (setting [3]), the “Dip (best-fit)” value was 19.12, the “Plateau1 (best-fit)” value is reported as 1.124, the “Plateau2 (best-fit)” value is given as 5.392 and the “nH1 (best-fit)” value is on record as -4.123. In addition, in the assay on NFE2L1 pathway (setting [3]), the “nH2 (best-fit)” value is recorded as -7.321. In addition, in the assay on NFE2L1 pathway (setting [4]), the EC50 amounted to 4.89 µM. In addition, the EC50 in the assay on NFE2L1 pathway (setting [5]) worked out at 4.9 µM. In addition, the EC50 with NFE2L1 pathway (setting [1]) was 3.1 µM. Moreover, the fold induction at 5 µM in the assay with NFE2L1 pathway was 11.7. Moreover, in the assay with NFE2L1 pathway (setting [2]), the “Bottom (best-fit)” value stood at 1.08, the “Hillslope (best-fit)” value is recorded as 7.14, the “Span (best-fit)” value is recorded as 6.12 and the “Top (best-fit)” value came to 7.20. The “logEC50 (best-fit)” value in the assay with NFE2L1 pathway (setting [2]) is given as 0.49.
